Assay results published in patent US11679065B2, “Compositions with sulfur having enhanced efficacy and aesthetics” (The Procter & Gamble Company, priority 2020, dated 2023).

What was measured:
[1] = tested on: Malassezia; test: Minimal inhibitory concentration of sulfur (known value); format: cell-based; conditions: generally accepted MIC, gray box in FIGS. 1-4
Method: A dissolution and diffusion model is utilized to help dimension sulfur solubility in sebum over a 24 hour period. The model predicts where sulfur concentration will rise above the minimal inhibitory concentration (MIC is known to be in the range of 10-50 ppm for sulfur), for the fungus that causes dandruff (Malassezia). The model factors in sulfur dissolution varying sebum thickness and sebum production rate over the 24 hour period as well as a loss term for sulfur migration into the scalp/stratum corneum. FIGS. 1-4) show simulation outputs for mean sulfur particles sizes, 2, 34, 100 and 150 micron sulfur particles respectively wherein each graph is a compilation of curves representing variations in initial sebum thickness and production rate. The gray box in each figure represents a range of sulfur concentrations that encompass the generally accepted MIC (log 10(MIC) range is 1-1.7). It is observed from the simulations that as particle size increases, the approximate number of hours that sulfur concentration is above the MIC expands until the particle size of about 150 microns, wherein the dissolution of sulfur in sebum becomes the rate limiting step and the concentration of sulfur never exceeds the MIC needed for a dandruff benefit.

[2] = tested on: Malassezia; conditions: fungus that causes dandruff (Malassezia); known range; cited from earlier work

## S1SSSSSSS1 [Sulfur]
[1]
  log 10(MIC) range: 1-1.7
[2]
  minimal inhibitory concentration (MIC): 10-50 ppm
